In patent US20250049789A1, “METHODS OF TREATING ALOPECIA ARAETA” (AbbVie Inc., priority 2023, published 2025):

Tested on: alopecia areata
Assay: Efficacy and safety of upadacitinib in AD patients with concomitant alopecia areata (SALT, AA-IGA)
Type: in vivo, human
Text: According to data reported in the patient clinical report forms by each investigator, all AD patients who were concomitantly suffering from alopecia areata at the baseline visit were identified. Medical records included demographic characteristics such as age, sex, occupation, smoking habits (smoker, former smoker, or non-smoker), AD history and severity, alopecia areata history and severity, prior treatments, atopic and non-atopic comorbidities, serum IgE levels, and concomitant therapies.
Patients were evaluated at baseline, and follow-up visits were scheduled after 4 weeks from baseline, and every 12 weeks thereafter. At baseline and at each follow-up visit, AD severity was assessed by Eczema Area and Severity Index (EASI) together with other tools. To evaluate severity and treatment response of alopecia areata, Severity of Alopecia Tool (SALT) and Alopecia Areata-Investigator Global Assessment (AA-IGA) were performed, as commonly used in daily practice. […] The SALT change throughout the observation period was recorded as the difference between the baseline SALT score and the SALT score value calculated at each follow-up visit (A SALT).
Qualitative and quantitative variables were described as relative frequencies (%), mean and standard deviation (or medians and interquartile ranges [IR], as appropriate), respectively. […] Data are reported and analysed “as observed”. […]

Compound: CC[C@@H]1CN(C(=O)NCC(F)(F)F)C[C@@H]1c1cnc2cnc3[nH]ccc3n12 [upadacitinib, (3S,4R)-3-ethyl-4-(3H-imidazo[1,2-a]pyrrolo[2,3-e]pyrazin-8-yl)-N-(2,2,2-trifluoroethyl)pyrrolidine-1-carboxamide]
- predicted SALT reduction for each 1-unit increase in the age of alopecia areata onset (multivariable regression, independent of baseline SALT and sex): 2.1 point
- patients with clinically meaningful hair regrowth (achievement of at least SALT 50 response) (upadacitinib 30 mg once daily, after 4 weeks of treatment): about 16%
